Source: patent US20240158348A1, “HERBICIDAL CYCLIC AMIDES N-SUBSTITUTED WITH A HALOALKYLSULFONYLANILIDE GROUP” (FMC Corporation, priority 2021, published 2024)

Tests used:
Assay type in all cases: in vivo
[1] = tested on: horseweed (Erigeron canadensis); test: Test C postemergence, horseweed; conditions: visual injury, 0 to 100 scale (0 no effect, 100 complete control)
Description: (§1) Seeds of plant species selected from blackgrass (Alopecurus myosuroides), corn (Zea mays), foxtail, giant (giant foxtail, Setaria faberi), goosegrass (Eleusine indica), kochia (Bassia scoparia), oat, wild (wild oat, Avena fatua), pigweed, palmer (palmer amaranth, Amaranthus palmeri), ragweed (common ragweed, Ambrosia artemisiifolia), ryegrass, Italian (Italian ryegrass, Lolium multiflorum), soybean (Glycine max) and wheat (Triticum aestivum) were planted into a blend of loam soil and sand and treated preemergence with a directed soil spray using test chemicals formulated in a non-phytotoxic solvent mixture which included a surfactant.
(§2) At the same time, plants selected from these crop and weed species and also galium (catchweed bedstraw, Galium aparine) and horseweed (Erigeron canadensis) were planted in pots containing the same blend of loam soil and sand and treated with postemergence applications of test chemicals formulated in the same manner. Plants ranged in height from 2 to 10 cm and were in the one- to two-leaf stage for the postemergence treatment. Treated plants and untreated controls were maintained in a greenhouse for 10 or 12 days, after which time all treated plants were compared to untreated controls and visually evaluated for injury. Plant response ratings, summarized in Table A, are based on a 0 to 100 scale where 0 is no effect and 100 is complete control. A dash (-) response means no test result.

[2] = tested on: foxtail, giant (giant foxtail, Setaria faberi); test: Test C postemergence, giant foxtail; conditions: visual injury, 0 to 100 scale (0 no effect, 100 complete control)
Description: as §1, §2

[3] = tested on: oat, wild (wild oat, Avena fatua); test: Test C postemergence, wild oat; conditions: visual injury, 0 to 100 scale (0 no effect, 100 complete control)
Description: as §1, §2

[4] = tested on: corn (Zea mays); test: Test C preemergence, corn; conditions: 0 is no effect, 100 is complete control
Description: as §1, §2

[5] = tested on: soybean (Glycine max); test: Test C postemergence, soybean; conditions: visual injury, 0 to 100 scale (0 no effect, 100 complete control)
Description: as §1, §2

[6] = tested on: rice (Oryza sativa); test: Test D flooded paddy test, rice; set-up: key: 0 = no effect, 100 = complete control; conditions: 250 g ai/ha, Flood; applied to paddy water at 2-leaf stage; visual rating after 13 days; scale 0 (no effect) to 100 (complete control)
Experimental: (§3) Plant species in the flooded paddy test selected from barnyardgrass (Echinochloa crusgalli), ducksalad (Heteranthera limosa), rice (Oryza sativa), and sedge, umbrella (small-flower umbrella sedge, Cyperus difformis) were grown to the 2-leaf stage for testing. At time of treatment, test pots were flooded to 3 cm above the soil surface, treated by application of test compounds directly to the paddy water, and then maintained at that water depth for the duration of the test. Treated plants and controls were maintained in a greenhouse for 13 days, after which time all species were compared to controls and visually evaluated. Plant response ratings, summarized in Table B, are based on a scale of 0 to 100 where 0 is no effect and 100 is complete control. A dash (-) response means no test result.

[7] = tested on: sedge, umbrella (small-flower umbrella sedge, Cyperus difformis); test: Test D flooded paddy test, umbrella sedge; set-up: key: 0 = no effect, 100 = complete control; conditions: 250 g ai/ha, Flood; applied to paddy water at 2-leaf stage; visual rating after 13 days; scale 0 (no effect) to 100 (complete control)
Experimental: as §3

[8] = tested on: blackgrass (Alopecurus myosuroides); test: Test C postemergence, blackgrass; conditions: visual injury, 0 to 100 scale (0 no effect, 100 complete control)
Description: as §1, §2

[9] = tested on: ducksalad (Heteranthera limosa); test: Test D flooded paddy test, ducksalad; set-up: key: 0 = no effect, 100 = complete control; conditions: 250 g ai/ha, Flood; applied to paddy water at 2-leaf stage; visual rating after 13 days; scale 0 (no effect) to 100 (complete control)
Experimental: as §3

[10] = tested on: ragweed (common ragweed, Ambrosia artemisiifolia); test: Test C postemergence, ragweed; conditions: visual injury, 0 to 100 scale (0 no effect, 100 complete control)
Description: as §1, §2

[11] = tested on: barnyardgrass (Echinochloa crusgalli); test: Test D flooded paddy test, barnyardgrass; set-up: key: 0 = no effect, 100 = complete control; conditions: 250 g ai/ha, Flood; applied to paddy water at 2-leaf stage; visual rating after 13 days; scale 0 (no effect) to 100 (complete control)
Experimental: as §3

[12] = tested on: wheat (Triticum aestivum); test: Test C postemergence, wheat; conditions: visual injury, 0 to 100 scale (0 no effect, 100 complete control)
Description: as §1, §2

[13] = tested on: wheat (Triticum aestivum); test: Test C preemergence, wheat; conditions: 0 is no effect, 100 is complete control
Description: as §1, §2

[14] = tested on: ryegrass, Italian (Italian ryegrass, Lolium multiflorum); test: Test C preemergence, Italian ryegrass; conditions: 0 is no effect, 100 is complete control
Description: as §1, §2

[15] = tested on: blackgrass (Alopecurus myosuroides); test: Test C preemergence, blackgrass; conditions: 0 is no effect, 100 is complete control
Description: as §1, §2

[16] = tested on: pigweed, palmer (palmer amaranth, Amaranthus palmeri); test: Test C postemergence, palmer amaranth; conditions: visual injury, 0 to 100 scale (0 no effect, 100 complete control)
Description: as §1, §2

[17] = tested on: ryegrass, Italian (Italian ryegrass, Lolium multiflorum); test: Test C postemergence, Italian ryegrass; conditions: visual injury, 0 to 100 scale (0 no effect, 100 complete control)
Description: as §1, §2

[18] = tested on: kochia (Bassia scoparia); test: Test C preemergence, kochia; conditions: 0 is no effect, 100 is complete control
Description: as §1, §2

[19] = tested on: kochia (Bassia scoparia); test: Test C postemergence, kochia; conditions: visual injury, 0 to 100 scale (0 no effect, 100 complete control)
Description: as §1, §2

[20] = tested on: corn (Zea mays); test: Test C postemergence, corn; conditions: visual injury, 0 to 100 scale (0 no effect, 100 complete control)
Description: as §1, §2

[21] = tested on: pigweed, palmer (palmer amaranth, Amaranthus palmeri); test: Test C preemergence, palmer amaranth; conditions: 0 is no effect, 100 is complete control
Description: as §1, §2

[22] = tested on: goosegrass (Eleusine indica); test: Test C postemergence, goosegrass; conditions: visual injury, 0 to 100 scale (0 no effect, 100 complete control)
Description: as §1, §2

[23] = tested on: galium (catchweed bedstraw, Galium aparine); test: Test C postemergence, galium; conditions: visual injury, 0 to 100 scale (0 no effect, 100 complete control)
Description: as §1, §2

[24] = tested on: ragweed (common ragweed, Ambrosia artemisiifolia); test: Test C preemergence, ragweed; conditions: 0 is no effect, 100 is complete control
Description: as §1, §2

[25] = tested on: goosegrass (Eleusine indica); test: Test C preemergence, goosegrass; conditions: 0 is no effect, 100 is complete control
Description: as §1, §2

[26] = tested on: oat, wild (wild oat, Avena fatua); test: Test C preemergence, wild oat; conditions: 0 is no effect, 100 is complete control
Description: as §1, §2

[27] = tested on: foxtail, giant (giant foxtail, Setaria faberi); test: Test C preemergence, giant foxtail; conditions: 0 is no effect, 100 is complete control
Description: as §1, §2

[28] = tested on: soybean (Glycine max); test: Test C preemergence, soybean; conditions: 0 is no effect, 100 is complete control
Description: as §1, §2

Cc1cc(C)c(N2CCC(OCC3CCCC3)C2=O)cc1NS(=O)(=O)C(F)(F)F (stereo not shown) [Compound 57]
Horseweed plant response rating ([1]; 31 g ai/ha Postemergence): 0 | Horseweed plant response rating ([1]; 125 g ai/ha Postemergence): 80 | Foxtail, Giant plant response rating ([2]; 31 g ai/ha Postemergence): 60 | Foxtail, Giant plant response rating ([2]; 125 g ai/ha Postemergence): 70 | Oat, Wild plant response rating ([3]; 31 g ai/ha Postemergence): 10 | Oat, Wild plant response rating ([3]; 125 g ai/ha Postemergence): 10 | Plant response rating (0 to 100 scale), Corn ([4]; 31 g ai/ha Preemergence): 0 | Plant response rating (0 to 100 scale), Corn ([4]; 125 g ai/ha Preemergence): 50 | Soybean plant response rating ([5]; 31 g ai/ha Postemergence): 80 | Soybean plant response rating ([5]; 125 g ai/ha Postemergence): 100 | Plant response rating, Rice [6]: 10 | Plant response rating, Sedge, Umbrella [7]: 95 | Blackgrass plant response rating ([8]; 31 g ai/ha Postemergence): 40 | Blackgrass plant response rating ([8]; 125 g ai/ha Postemergence): 80 | Plant response rating, Ducksalad [9]: 90 | Ragweed plant response rating ([10]; 31 g ai/ha Postemergence): 40 | Ragweed plant response rating ([10]; 125 g ai/ha Postemergence): 60 | Plant response rating, Barnyardgrass [11]: 15 | Wheat plant response rating ([12]; 31 g ai/ha Postemergence): 70 | Wheat plant response rating ([12]; 125 g ai/ha Postemergence): 70 | Plant response rating (0 to 100 scale), Wheat ([13]; 31 g ai/ha Preemergence): 20 | Plant response rating (0 to 100 scale), Wheat ([13]; 125 g ai/ha Preemergence): 80 | Plant response rating (0 to 100 scale), Ryegrass, Italian ([14]; 31 g ai/ha Preemergence): 70 | Plant response rating (0 to 100 scale), Ryegrass, Italian ([14]; 125 g ai/ha Preemergence): 90 | Plant response rating (0 to 100 scale), Blackgrass ([15]; 31 g ai/ha Preemergence): 40 | Plant response rating (0 to 100 scale), Blackgrass ([15]; 125 g ai/ha Preemergence): 80 | Pigweed, Palmer plant response rating ([16]; 31 g ai/ha Postemergence): 40 | Pigweed, Palmer plant response rating ([16]; 125 g ai/ha Postemergence): 70 | Ryegrass, Italian plant response rating ([17]; 31 g ai/ha Postemergence): 20 | Ryegrass, Italian plant response rating ([17]; 125 g ai/ha Postemergence): 60 | Plant response rating (0 to 100 scale), Kochia ([18]; 31 g ai/ha Preemergence): 60 | Plant response rating (0 to 100 scale), Kochia ([18]; 125 g ai/ha Preemergence): 80 | Kochia plant response rating ([19]; 31 g ai/ha Postemergence): 50 | Kochia plant response rating ([19]; 125 g ai/ha Postemergence): 70 | Corn plant response rating ([20]; 31 g ai/ha Postemergence): 0 | Corn plant response rating ([20]; 125 g ai/ha Postemergence): 40 | Plant response rating (0 to 100 scale), Pigweed, Palmer ([21]; 31 g ai/ha Preemergence): 100 | Plant response rating (0 to 100 scale), Pigweed, Palmer ([21]; 125 g ai/ha Preemergence): 100 | Goosegrass plant response rating ([22]; 31 g ai/ha Postemergence): 70 | Goosegrass plant response rating ([22]; 125 g ai/ha Postemergence): 90 | Galium plant response rating ([23]; 31 g ai/ha Postemergence): 50 | Galium plant response rating ([23]; 125 g ai/ha Postemergence): 90 | Plant response rating (0 to 100 scale), Ragweed ([24]; 31 g ai/ha Preemergence): 0 | Plant response rating (0 to 100 scale), Ragweed ([24]; 125 g ai/ha Preemergence): 80 | Plant response rating (0 to 100 scale), Goosegrass ([25]; 31 g ai/ha Preemergence): 90 | Plant response rating (0 to 100 scale), Goosegrass ([25]; 125 g ai/ha Preemergence): 100 | Plant response rating (0 to 100 scale), Oat, Wild ([26]; 31 g ai/ha Preemergence): 20 | Plant response rating (0 to 100 scale), Oat, Wild ([26]; 125 g ai/ha Preemergence): 80 | Plant response rating (0 to 100 scale), Foxtail, Giant ([27]; 31 g ai/ha Preemergence): 80 | Plant response rating (0 to 100 scale), Foxtail, Giant ([27]; 125 g ai/ha Preemergence): 100 | Plant response rating (0 to 100 scale), Soybean ([28]; 31 g ai/ha Preemergence): 70 | Plant response rating (0 to 100 scale), Soybean ([28]; 125 g ai/ha Preemergence): 90
